The results in this text go back to US20100168102A9, “Amide Derivatives as Kinase Inhibitors” (Devgen NV, priority 2005, published 2010).

One assay concerns the target T1, human ROCKα/ROCKII mix (Homo sapiens, UniProt O75116).
T1 construct: purchased Upstate Biotechnology 14-451
Kind of assay: Biochemical assay for ROCK (fluorescence polarization, ROCK IMAP Kit). The method, then:
The compounds were tested for inhibition of human ROCKα/ROCKII mix.
The inhibition assays were performed with a fluorescence polarization (FP) assay using the commercially available ROCK IMAP Kit from Molecular Devices (Product ID. No. R8093), essentially in accordance with the protocol supplied by the manufacturer. […] The enzyme mix ROCKα/ROCKII was obtained from Upstate Biotechnology (Product ID No 14-451).
In summary, the compound was screened in the wells of a 384 well plate for enzymatic inhibition with concentrations varying from 100 μM to 0.3 nM using a stepwise 3 (or 2)-fold dilution.
To perform the assay, 1 μl of a solution of the compound to be tested in DMSO (at each concentration) was added to 2 μl of a solution of the enzyme in 10 mM Tris-HCl , 10 mM MgCl2, 0.1% BSA, 0.05% NaN3, pH 7.2. The final concentration of the enzyme was 2.6 nM.
After incubating for 30 minutes at room temperature, 2 μl of a mixture of ATP and the protein substrate in 10 mM Tris-HCl, 10 mM MgCl2, 0.1% BSA, 0.05% NaN3, pH 7.2 was added. The final concentration of the ATP was 10 μM and final concentration of protein substrate was 0.2 μM.
After incubating for 60 minutes at room temperature, 12 μl of the IMAP Binding Solution (mix of the IMAP Binding Buffer A (1×) and the IMAP Binding Reagent (from the ROCK IMAP kit)) was added.
The mixture thus obtained (total volume: 17 μl) was incubated for 60 minutes at room temperature, upon which the fluorescence polarization was measured using an automated plate reader (Perkin Elmer, Model Envision 2100-0010 HTS) with FP filters: excitation filter FITC FP 480 and emission filters FITC FP P-pol 535 and FITC FP S-pol 535 (Perkin-Elmer). The results were fitted to a curve using the XL-Fit algorithm and IC50 values were calculated for each fitted curve, again using the XL-Fit algorithm.
Background: Polarisation of emitted light reports the rotation of a fluorescent probe.

A further assay concerns the target T2, PKC epsilon (Homo sapiens, UniProt Q02156).
T2 construct: purchased Invitrogen P2282
T2 sequence (Q02156 1-737): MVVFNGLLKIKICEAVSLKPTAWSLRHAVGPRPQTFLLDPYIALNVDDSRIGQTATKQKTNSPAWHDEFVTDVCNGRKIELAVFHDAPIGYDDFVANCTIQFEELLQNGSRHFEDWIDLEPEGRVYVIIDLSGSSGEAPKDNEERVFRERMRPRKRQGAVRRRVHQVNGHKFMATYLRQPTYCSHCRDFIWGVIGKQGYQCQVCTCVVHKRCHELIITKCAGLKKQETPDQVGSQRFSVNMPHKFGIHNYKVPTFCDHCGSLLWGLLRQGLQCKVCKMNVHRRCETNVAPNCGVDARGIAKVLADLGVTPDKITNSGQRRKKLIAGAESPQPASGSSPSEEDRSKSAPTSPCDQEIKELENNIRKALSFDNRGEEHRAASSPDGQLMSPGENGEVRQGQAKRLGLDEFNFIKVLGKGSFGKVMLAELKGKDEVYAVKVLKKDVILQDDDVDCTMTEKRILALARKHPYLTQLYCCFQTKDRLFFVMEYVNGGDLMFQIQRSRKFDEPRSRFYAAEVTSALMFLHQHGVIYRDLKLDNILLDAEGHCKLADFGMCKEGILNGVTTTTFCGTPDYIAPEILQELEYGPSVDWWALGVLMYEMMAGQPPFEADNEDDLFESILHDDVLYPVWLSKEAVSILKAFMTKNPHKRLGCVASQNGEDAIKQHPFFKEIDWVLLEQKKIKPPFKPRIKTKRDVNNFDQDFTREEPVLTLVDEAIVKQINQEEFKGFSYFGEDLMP
Kind of assay: Biochemical assay for PKC epsilon (fluorescence polarization, Protein Kinase C Assay Kit, Red). The settings on record: read-out: IC50 μM PKCε. An outline of the steps:
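Read-out was fluorescence-polarization competition between phosphorylated substrate and a rhodamine PKC tracer for an anti-phosphoserine antibody, added with EDTA stop after an 80 min room-temperature kinase reaction with ATP and protein substrate (Mg2+/Ca2+ buffer). Enzyme (10 ng/ml final) was preincubated with compound for 30 min.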

[1] abbreviates: Table 2, compounds of Formula XIII.
Where [2] appears, read: compounds of Formula XIV, Table 3.

Counter-ions that a name gives are not always drawn. Like-named read-outs stand apart in the source and are kept apart here.

T1 sequence (O75116 11-552 limits assumed): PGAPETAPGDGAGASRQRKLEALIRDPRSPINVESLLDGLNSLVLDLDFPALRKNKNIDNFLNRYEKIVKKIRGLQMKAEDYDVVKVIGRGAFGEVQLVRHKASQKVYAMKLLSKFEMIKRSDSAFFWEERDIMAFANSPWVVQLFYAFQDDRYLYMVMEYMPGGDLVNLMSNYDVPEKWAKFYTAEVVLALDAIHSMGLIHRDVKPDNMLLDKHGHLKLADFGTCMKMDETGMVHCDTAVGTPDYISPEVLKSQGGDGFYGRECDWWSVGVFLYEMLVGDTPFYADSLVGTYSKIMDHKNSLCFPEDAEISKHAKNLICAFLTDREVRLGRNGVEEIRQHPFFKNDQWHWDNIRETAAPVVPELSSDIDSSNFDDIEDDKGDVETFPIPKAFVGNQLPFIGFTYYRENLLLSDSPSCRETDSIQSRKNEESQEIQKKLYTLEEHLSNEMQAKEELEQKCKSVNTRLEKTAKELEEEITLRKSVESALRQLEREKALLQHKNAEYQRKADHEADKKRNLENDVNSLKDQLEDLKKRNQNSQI

In the case of `CCC(Oc1ccccc1)C(=O)NCC(N)c1ccc(C(=O)Nc2ccncc2)cc1` (centres unmarked) [Compound 158, 4-[1-Amino-2-(2-phenoxy-butyrylamino)-ethyl]-N-pyridin-4-yl-benzamide], the IC50 on human ROCKα/ROCKII mix (setting [1]) lay within 0.05 to 0.5 µM; on PKC epsilon (setting [1]) it was 0.5 to 5 µM.

Take `NC(CNC(=O)c1cccc(Cl)c1)c1ccc(C(=O)Nc2ccncc2)cc1` (centres unmarked) [Compound 89, 4-[1-amino-2-(3-chloro-benzoylamino)-ethyl]-N-pyridin-4-yl-benzamide]: the IC50 against human ROCKα/ROCKII mix (setting [1]) and on PKC epsilon (setting [1]) was 0.5 to 5 µM throughout.

Consider `Cc1ccc(C(=O)NCC(N)c2ccc(C(=O)Nc3ccncc3)cc2)cc1` (centres unmarked) [Compound 86, 4-[1-amino-2-(4-methyl-benzoylamino)-ethyl]-N-pyridin-4-yl-benzamide], for which the half-inhibitory concentration (IC50) fell in the range of 0.5 to 5 µM against human ROCKα/ROCKII mix (setting [1]) and 5 to 50 µM on PKC epsilon (setting [1]).

`NC(CC(=O)NCCc1cccc(F)c1)c1ccc(C(=O)Nc2ccncc2)cc1` (centres unmarked) [Compound 306]: the IC50 at human ROCKα/ROCKII mix (setting [2]) lay in the range of 0.5 to 5 µM; on PKC epsilon (setting [2]), 5 to 50 µM.

Take `NC(c1ccc(C(=O)Nc2ccncc2)cc1)C1CCCN1C(=O)C1(c2ccc(F)cc2F)CC1` (centres unmarked) [Compound 582, 4-(Amino-{1-[1-(2,4-difluoro-phenyl)-cyclopropanecarbonyl]-pyrrolidin-2-yl}-methyl)-N-pyridin-4-yl-benzamide]: the IC50 against human ROCKα/ROCKII mix and at PKC epsilon was 0.5 to 5 µM throughout.

Take `NC(CNC(=O)Nc1ccc(Cl)cc1)c1ccc(C(=O)Nc2ccncc2)cc1` (centres unmarked) [Compound 326, 4-{1-Amino-2-[3-(4-chloro-phenyl)-ureido]-ethyl}-N-pyridin-4-yl-benzamide]: the IC50 on human ROCKα/ROCKII mix and at PKC epsilon was 0.05 to 0.5 µM throughout.

In the case of `N[C@@H](CC(=O)N[C@H]1CCCc2ccccc21)c1ccc(C(=O)Nc2ccncc2)cc1` [Compound 375, 4{(S)-1-Amino-2-[(S)-(1,2,3,4-tetrahydro-naphthalen-1-yl)carbamoyl]-ethyl}-N-pyridin-4-yl-benzamide dihydrochloric acid salt], the IC50 against human ROCKα/ROCKII mix was 0.05 to 0.5 µM; on PKC epsilon it was 5 to 50 µM.

`CC(C)(C(=O)NCC(N)c1ccc(C(=O)Nc2ccncc2)cc1)c1cccs1` (centres unmarked) [Compound 348, 4-[1-Amino-2-(2-methyl-2-thiophen-2-yl-propionylamino)-ethyl]-N-pyridin-4-yl-benzamide]: the IC50 against human ROCKα/ROCKII mix (setting [1]) was 0.05 to 0.5 µM; at PKC epsilon (setting [1]), less than 0.05 µM.

As for `CC(NC(=O)CC(N)c1ccc(C(=O)Nc2ccncc2)cc1)c1cccc2ccccc12` (centres unmarked) [Compound 229, 4-{1-Amino-2-(1-naphtalen-1-yl-ethylcarbamoyl)-ethyl]-N-pyridin-4-yl-benzamide], the IC50 against human ROCKα/ROCKII mix (setting [2]) was 0.05 to 0.5 µM; at PKC epsilon (setting [2]) it was 0.5 to 5 µM.

Consider `CC(C)(C(=O)NCC(N)c1ccc(C(=O)Nc2ccncc2)cc1)c1ccc(F)c(Cl)c1` (centres unmarked) [Compound 382, 4-{1-Amino-2-[2-(3-chloro-4-fluoro-phenyl)-2-methyl-propionylamino]-ethyl}-N-pyridin-4-yl-benzamide], for which the figures for the IC50 against human ROCKα/ROCKII mix (setting [1]) and at PKC epsilon (setting [1]) were 0.05 to 0.5 µM and less than 0.05 µM, respectively.

For the molecule “4-[1-Amino-2-(3,4-dichloro- 6-methyl-benzylcarbamoyl)- ethyl}-N-pyridin-4-yl- benzamide [Compound 254]”, the IC50 lay in the range of 0.05 to 0.5 µM on human ROCKα/ROCKII mix (setting [2]) and 0.5 to 5 µM at PKC epsilon (setting [2]).

On to `NC(c1ccc(C(=O)Nc2ccncc2)cc1)C1CCCN1C(=O)Cc1cccs1` (centres unmarked) [Compound 547, 4-{Amino-[1-(2-thiophen-2-yl-acetyl)-pyrrolidin-2-yl]-methyl}-N-pyridin-4-yl-benzamide], for which the IC50 at human ROCKα/ROCKII mix fell in the range of 0.05 to 0.5 µM; at PKC epsilon, 5 to 50 µM.

Turning to `COc1ccc(CCNC(=O)CC(N)c2ccc(C(=O)Nc3ccncc3)cc2)cc1OC` (centres unmarked) [Compound 293, 4-{1-Amino-2-[2-(3,4-dimethoxy-phenyl)-ethylcarbamoyl]-ethyl}-N-pyridin-4-yl-benzamide], the IC50 lay within 0.5 to 5 µM at human ROCKα/ROCKII mix (setting [2]) and 5 to 50 µM on PKC epsilon (setting [2]).

As for `NC(c1ccc(C(=O)Nc2ccncc2)cc1)C1CCCN1C(=O)C1(c2ccc(F)cc2)CC1` (centres unmarked) [Compound 574, 4-(Amino-{1-[1-(4-fluoro-phenyl)-cyclopropanecarbonyl]-pyrrolidin-2-yl}-methyl)-N-pyridin-4-yl-benzamide], the IC50 against human ROCKα/ROCKII mix and at PKC epsilon was 0.5 to 5 µM each time.

On to `NC(CNC(=O)Cc1ccc(F)cc1)c1ccc(C(=O)Nc2ccncc2)cc1` (centres unmarked) [Compound 148, 4-{1-Amino-2-[2-(4-fluoro-phenyl)-acetylamino]-ethyl}-N-pyridin-4-yl-benzamide], for which the IC50 at human ROCKα/ROCKII mix (setting [1]) and at PKC epsilon (setting [1]) was 0.05 to 0.5 µM in each case.

`NC(CC(=O)Nc1cc(-c2ccco2)[nH]n1)c1ccc(C(=O)Nc2ccncc2)cc1` (centres unmarked) [Compound 323, 4-[1-Amino-2-(5-furan-2-yl-1H-pyrazol-3-ylcarbamoyl)-ethyl]-N-pyridin-4-yl-benzamide]: the figures for the IC50 on human ROCKα/ROCKII mix (setting [2]) and at PKC epsilon (setting [2]) were 0.05 to 0.5 µM and 0.5 to 5 µM, respectively.

For `CC(C)CCC(=O)NCC(N)c1ccc(C(=O)Nc2ccncc2)cc1` (centres unmarked) [Compound 36, 4-[1-Amino-2-(4-methyl-pentanoylamino)-ethyl]-N-pyridin-4-yl-benzamide], the IC50 at human ROCKα/ROCKII mix (setting [1]) and at PKC epsilon (setting [1]) was 0.5 to 5 µM throughout.

In the case of `Cn1cccc1C(=O)NCC(N)c1ccc(C(=O)Nc2ccncc2)cc1` (centres unmarked) [Compound 121, 1-Methyl-1H-pyrrole-2-carboxylic acid {2-amino-2-[4-(pyridin-4-ylcarbamoyl)-phenyl]-ethyl}-amide], the IC50 against human ROCKα/ROCKII mix (setting [1]) and at PKC epsilon (setting [1]) was 0.5 to 5 µM each time.

As to “4-{1-Amino-2- [(benzo[1,3]dioxol-5- ylmethyl)-carbamoyl]-ethyl}- N-pyridin-4-yl-benzamide [Compound 245]”, the IC50 against human ROCKα/ROCKII mix (setting [2]) lay within 0.05 to 0.5 µM; at PKC epsilon (setting [2]), 0.5 to 5 µM.

For the molecule `Cc1ccccc1NC(=S)NCC(N)c1ccc(C(=O)Nc2ccncc2)cc1` (centres unmarked) [Compound 12, 4-[1-amino-2-(3-o-tolyl-thioureido)-ethyl]-N-pyridin-4-yl-benzamide], the IC50 against human ROCKα/ROCKII mix lay within 0.5 to 5 µM; on PKC epsilon, 0.05 to 0.5 µM.

Regarding “4-{1-Amino-2-[methyl-(2- naphthalen-2-yl-acetyl)- amino]-ethyl}- N-pyridin-4-yl-benzamide [Compound 434]”, the IC50 was 0.05 to 0.5 µM at human ROCKα/ROCKII mix and 0.5 to 5 µM on PKC epsilon.

Take `NC(c1ccc(C(=O)Nc2ccncc2)cc1)C1CCCN1C(=O)Cc1ccc(Cl)c(Cl)c1` (centres unmarked) [Compound 592, 4-(Amino-{1-[2-(3,4-dichloro-phenyl)-acetyl]-pyrrolidin-2-yl}-methyl)-N-pyridin-4-yl-benzamide]: the IC50 against human ROCKα/ROCKII mix and on PKC epsilon was 0.5 to 5 µM in each case.

For `CN(CC(N)c1ccc(C(=O)Nc2ccncc2)cc1)C(=O)C1(c2ccc(F)c(F)c2)CC1` (centres unmarked) [Compound 486, 4-(1-Amino-2-{[1-(3,4-difluoro-phenyl)-cyclopropanecarbonyl]-methyl-amino}-ethyl)-N-pyridin-4-yl-benzamide], the IC50 at human ROCKα/ROCKII mix and on PKC epsilon was 0.5 to 5 µM in each case.

For `Cc1ccc(CNC(=O)NCC(N)c2ccc(C(=O)Nc3ccncc3)cc2)cc1` (centres unmarked) [Compound 8, 4-{1-amino-2-[3-(4-methyl-benzyl)-ureido]-ethyl}-N-pyridin-4-yl-benzamide], the IC50 against human ROCKα/ROCKII mix was 0.05 to 0.5 µM; on PKC epsilon, 0.5 to 5 µM.

As for `COc1ccc(C(=O)NCC(N)c2ccc(C(=O)Nc3ccncc3)cc2)cc1` (centres unmarked) [Compound 74, 4-[1-amino-2-(4-methoxy-benzoylamino)-ethyl]-N-pyridin-4-yl-benzamide], the IC50 at human ROCKα/ROCKII mix (setting [1]) is 0.5 to 5 µM; on PKC epsilon (setting [1]), 5 to 50 µM.

As usually defined, the IC50 is the point on the concentration scale where inhibition reaches its midpoint.
